Test results reported in US10273229B2, “N-substituted 4-aminoquinazoline derivatives and methods of use” (priority 2014, dated 2019).

Columns and labels:
[1] = biological target: Syk (Homo sapiens, UniProt P43405); experiment: Syk kinase inhibition (Table 1)
[2] = biological target: ErbB4 (Homo sapiens, UniProt Q15303); experiment: ErbB4 kinase inhibition (Table 1); assay type: biochemical
[3] = biological target: T1, EGFR (Homo sapiens, UniProt P00533); experiment: EGFR kinase inhibition (Table 1)
T1 sequence (P00533 25-1210): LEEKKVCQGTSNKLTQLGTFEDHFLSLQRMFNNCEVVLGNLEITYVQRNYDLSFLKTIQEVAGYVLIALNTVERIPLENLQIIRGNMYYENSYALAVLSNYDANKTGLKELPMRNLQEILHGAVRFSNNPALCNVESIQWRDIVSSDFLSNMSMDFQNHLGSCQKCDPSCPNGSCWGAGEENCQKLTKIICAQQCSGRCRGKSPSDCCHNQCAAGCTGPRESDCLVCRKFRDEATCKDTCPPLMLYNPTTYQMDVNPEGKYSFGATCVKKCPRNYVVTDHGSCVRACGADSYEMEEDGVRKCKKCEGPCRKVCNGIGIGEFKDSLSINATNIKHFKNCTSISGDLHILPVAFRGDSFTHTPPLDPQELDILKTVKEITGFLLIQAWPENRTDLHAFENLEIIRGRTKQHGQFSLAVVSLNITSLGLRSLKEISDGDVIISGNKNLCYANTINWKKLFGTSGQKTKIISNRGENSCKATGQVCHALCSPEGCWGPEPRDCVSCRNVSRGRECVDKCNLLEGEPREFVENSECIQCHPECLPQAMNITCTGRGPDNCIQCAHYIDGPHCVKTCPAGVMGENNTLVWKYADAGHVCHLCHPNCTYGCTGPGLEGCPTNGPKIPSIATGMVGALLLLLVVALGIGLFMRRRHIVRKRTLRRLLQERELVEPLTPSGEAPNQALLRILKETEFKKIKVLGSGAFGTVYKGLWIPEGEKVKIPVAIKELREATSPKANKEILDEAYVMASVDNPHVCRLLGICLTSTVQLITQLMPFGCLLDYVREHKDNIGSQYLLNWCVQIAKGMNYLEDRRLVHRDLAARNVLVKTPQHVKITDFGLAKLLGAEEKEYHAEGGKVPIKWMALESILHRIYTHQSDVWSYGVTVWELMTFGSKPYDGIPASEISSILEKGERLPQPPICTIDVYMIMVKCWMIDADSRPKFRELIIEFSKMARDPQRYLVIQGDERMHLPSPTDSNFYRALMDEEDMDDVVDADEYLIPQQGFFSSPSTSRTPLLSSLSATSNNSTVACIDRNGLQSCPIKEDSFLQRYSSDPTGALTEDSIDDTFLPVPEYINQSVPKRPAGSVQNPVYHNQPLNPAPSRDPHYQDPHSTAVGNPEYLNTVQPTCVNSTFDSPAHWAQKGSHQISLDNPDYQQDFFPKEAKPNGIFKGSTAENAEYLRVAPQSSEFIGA

[4] = biological target: T2, CYP3A4 (Homo sapiens, UniProt P08684); conditions: in words; for CYP3A4 inhibitor potency after preincubation with the test compound, compared with lapatinib: time dependent arm
T2 sequence (P08684 whole entry): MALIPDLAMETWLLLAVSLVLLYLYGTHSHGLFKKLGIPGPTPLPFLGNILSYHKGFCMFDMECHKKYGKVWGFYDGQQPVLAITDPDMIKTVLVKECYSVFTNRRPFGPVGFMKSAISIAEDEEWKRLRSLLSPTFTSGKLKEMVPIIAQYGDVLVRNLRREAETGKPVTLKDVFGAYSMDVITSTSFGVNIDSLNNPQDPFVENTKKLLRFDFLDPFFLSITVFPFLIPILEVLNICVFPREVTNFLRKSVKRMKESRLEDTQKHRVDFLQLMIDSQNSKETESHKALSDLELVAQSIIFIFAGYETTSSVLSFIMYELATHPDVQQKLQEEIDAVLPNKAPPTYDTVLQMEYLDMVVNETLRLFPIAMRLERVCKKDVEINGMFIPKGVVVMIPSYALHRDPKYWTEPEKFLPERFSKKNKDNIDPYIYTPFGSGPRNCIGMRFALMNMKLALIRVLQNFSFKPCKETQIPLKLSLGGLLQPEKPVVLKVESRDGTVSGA

[5] = biological target: T2, CYP3A4
[6] = biological target: T3, human ErbB2 (Homo sapiens, UniProt P04626); experiment: ErbB2 kinase assay, FRET peptide substrate (Example 3); assay type: biochemical; conditions: ErbB2 or EGFR (either kinase); in words
T3 sequence (P04626 23-1255): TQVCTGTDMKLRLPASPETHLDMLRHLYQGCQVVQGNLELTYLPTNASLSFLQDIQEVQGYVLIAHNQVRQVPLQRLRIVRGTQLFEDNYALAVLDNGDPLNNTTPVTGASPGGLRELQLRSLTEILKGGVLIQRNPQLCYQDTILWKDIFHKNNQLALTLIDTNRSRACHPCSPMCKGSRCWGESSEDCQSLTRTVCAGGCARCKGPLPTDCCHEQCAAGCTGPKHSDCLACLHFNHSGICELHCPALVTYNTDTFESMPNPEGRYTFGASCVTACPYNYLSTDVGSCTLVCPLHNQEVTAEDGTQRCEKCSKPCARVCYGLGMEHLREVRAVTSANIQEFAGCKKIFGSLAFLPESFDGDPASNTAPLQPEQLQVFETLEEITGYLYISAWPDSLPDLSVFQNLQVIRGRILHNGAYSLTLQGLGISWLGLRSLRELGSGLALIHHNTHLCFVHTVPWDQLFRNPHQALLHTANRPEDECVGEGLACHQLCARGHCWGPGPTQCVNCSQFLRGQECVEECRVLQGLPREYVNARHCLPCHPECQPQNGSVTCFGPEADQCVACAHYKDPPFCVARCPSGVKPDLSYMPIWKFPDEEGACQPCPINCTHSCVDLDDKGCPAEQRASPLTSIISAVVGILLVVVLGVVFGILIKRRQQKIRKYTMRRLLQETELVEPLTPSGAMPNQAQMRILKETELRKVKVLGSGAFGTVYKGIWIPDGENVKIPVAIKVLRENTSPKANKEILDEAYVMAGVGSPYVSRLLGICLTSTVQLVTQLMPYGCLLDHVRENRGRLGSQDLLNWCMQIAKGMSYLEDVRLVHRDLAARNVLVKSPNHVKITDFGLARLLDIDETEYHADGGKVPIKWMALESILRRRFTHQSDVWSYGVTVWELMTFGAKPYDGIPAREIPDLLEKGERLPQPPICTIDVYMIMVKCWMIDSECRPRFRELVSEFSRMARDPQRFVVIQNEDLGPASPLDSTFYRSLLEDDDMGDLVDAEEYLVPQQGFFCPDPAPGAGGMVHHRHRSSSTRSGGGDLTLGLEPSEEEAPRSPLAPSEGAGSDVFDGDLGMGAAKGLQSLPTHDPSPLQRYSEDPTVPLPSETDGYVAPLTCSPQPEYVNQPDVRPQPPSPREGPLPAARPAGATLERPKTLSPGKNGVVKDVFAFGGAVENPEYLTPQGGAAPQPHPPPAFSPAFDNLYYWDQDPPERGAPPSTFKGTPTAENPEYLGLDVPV
Experimental: Kinase assays were performed using standard protocols known to those skilled in the art. In brief, kinase, peptide substrate labeled with both coumarin (donor fluorophore) and fluorescein (acceptor fluorophore), ATP, and test compound are incubated together in a kinase reaction buffer. Typically, the reaction was stopped by development reagent (protease) with certain dilution factor after 2 hours. The plate was analyzed in Perkin Elmer Envision by FRET mode. The high ratio of coumarin/fluorescein represents 0% phosphorylation rate while low ratio of coumarin/fluorescein represents 100% phosphorylation rate.

[7] = biological target: T3, human ErbB2; experiment: ErbB2 kinase assay at RBC, 33P-ATP filter binding (Example 5); assay type: biochemical; conditions: in words
Experimental: The synthesis and biochemical testing of these compounds was completed using alternate CROs as a control for characterizing compounds.
(§1) Kinase assays were performed at RBC using standard protocols known to those skilled in the art. In brief, kinase, any required cofactors, substrate in DMSO, and kinase reaction mixture (by acoustic technology; Echo 550; nanoliter range) were incubated for 20 minutes at room temperature. 33P-ATP was added to initiate the reaction, which was incubated for 2 hours at room temperature.

[8] = biological target: T1, EGFR; experiment: EGFR kinase assay at RBC, 33P-ATP filter binding (Example 5); assay type: biochemical; conditions: in words
Experimental: as §1, with “The synthesis and biochemical testing of these compounds was completed using alternate CROs as a control for characterizing compounds. Kinase” for “Kinase”

[9] = test system: BT-474 cells; experiment: Cytotoxicity against BT-474 cells, CellTiter 96 (Example 4); assay type: cell-based, human; conditions: in words
Experimental: (§2) All of the test compounds were kept between 4° C. to 8° C. in solid form or as solution in DMSO. The cell lines BT-474 and NCI-N87 were obtained from the ATCC. The cell lines were maintained in liquid nitrogen. Cell lines were prepared by thawing a 1 mL vial of the cell line and splitting it into two T-75 flasks with 10 mL of the appropriate media. BT-474 and NCI-N87 both utilized RPMI 1640 with varying glucose content (1 g/L for BT-474 and 4.5 g/L for NCI-N87). The cell lines were trypsinized and split into two T-150 flasks each time the cell lines reached 70-90% confluency. When there were at least two confluent T-150 flasks of cell lines available, cultures were trypsinized and the cells enumerated using a hemocytometer and added to a 96-well microtiter plate at 1.5×10^5 cells/mL. The 96-well plates were then incubated at 37° C. with 5% CO2 for 24 hours to allow enough time for the cells to adhere to the wells. […] Lapatinib and media without the test compounds were used as controls. All 96-well plates were incubated at 37° C. with 5% CO2 for 3 days with plates containing BT-474 and for 6 days with plates containing NCI-N87. […] After recovery, cell viability was determined using the CellTiter 96® Aqueous One Solution Cell Proliferation Assay kit (Promega). The optical density (OD) was read using a SPECTRAMAX® M5 Microplate Reader (Molecular Devices) at 490 nm. […]

[10] = test system: NCI-N87 cells; experiment: Cytotoxicity against NCI-N87 cells, CellTiter 96 (Example 4); assay type: cell-based; conditions: in words
Experimental: as §2

[11] = test system: BT-474 cells; experiment: Cytotoxicity against BT-474 cells at RBC, Cell Titer-Glo 2.0 (Example 6); assay type: cell-based, human; conditions: in words
Experimental: All of the test compounds were kept between 4° C. to 8° C. in solid form or as solution in DMSO. The cell line BT-474 was obtained from the ATCC. Test compounds were dissolved in DMSO (10 mM stock). Cell Titer-Glo® 2.0 Luminescent cell viability assay reagent was obtained from Promega. BT474 human breast cancer cell line was grown in Hybri-care medium supplemented with 1.5 g/L sodium bicarbonate and 10% FBS. 100 μg/ml penicillin and 100 μg/ml streptomycin were added to all culture media. Cultures were maintained at 37° C. in a humidified atmosphere of 5% CO2 and 95% air. Test compounds in DMSO were added in a source plate. 25 nL of test compounds was delivered from the source plate to each well of the 384-well cell culture plates by Echo 550. 25 μl of culture medium containing 1000 cells for each cell line was added to the wells of the cell culture plates. […] The contents were mixed on an orbital shaker for 2 minutes and incubated at room temperature for 10 minutes to stabilize luminescent signal Luminescence was recorded by Envision 2104 Multilabel Reader (Perkin Elmer). The number of viable cells in culture was determined based on quantization of the ATP present in each culture well. The IC50 values were calculated and the IC50 curves were plotted using the GraphPad Prism 4 program based on a sigmoidal dose-response equation.

Sequence of ErbB4 (Q15303 26-1308, species assumed): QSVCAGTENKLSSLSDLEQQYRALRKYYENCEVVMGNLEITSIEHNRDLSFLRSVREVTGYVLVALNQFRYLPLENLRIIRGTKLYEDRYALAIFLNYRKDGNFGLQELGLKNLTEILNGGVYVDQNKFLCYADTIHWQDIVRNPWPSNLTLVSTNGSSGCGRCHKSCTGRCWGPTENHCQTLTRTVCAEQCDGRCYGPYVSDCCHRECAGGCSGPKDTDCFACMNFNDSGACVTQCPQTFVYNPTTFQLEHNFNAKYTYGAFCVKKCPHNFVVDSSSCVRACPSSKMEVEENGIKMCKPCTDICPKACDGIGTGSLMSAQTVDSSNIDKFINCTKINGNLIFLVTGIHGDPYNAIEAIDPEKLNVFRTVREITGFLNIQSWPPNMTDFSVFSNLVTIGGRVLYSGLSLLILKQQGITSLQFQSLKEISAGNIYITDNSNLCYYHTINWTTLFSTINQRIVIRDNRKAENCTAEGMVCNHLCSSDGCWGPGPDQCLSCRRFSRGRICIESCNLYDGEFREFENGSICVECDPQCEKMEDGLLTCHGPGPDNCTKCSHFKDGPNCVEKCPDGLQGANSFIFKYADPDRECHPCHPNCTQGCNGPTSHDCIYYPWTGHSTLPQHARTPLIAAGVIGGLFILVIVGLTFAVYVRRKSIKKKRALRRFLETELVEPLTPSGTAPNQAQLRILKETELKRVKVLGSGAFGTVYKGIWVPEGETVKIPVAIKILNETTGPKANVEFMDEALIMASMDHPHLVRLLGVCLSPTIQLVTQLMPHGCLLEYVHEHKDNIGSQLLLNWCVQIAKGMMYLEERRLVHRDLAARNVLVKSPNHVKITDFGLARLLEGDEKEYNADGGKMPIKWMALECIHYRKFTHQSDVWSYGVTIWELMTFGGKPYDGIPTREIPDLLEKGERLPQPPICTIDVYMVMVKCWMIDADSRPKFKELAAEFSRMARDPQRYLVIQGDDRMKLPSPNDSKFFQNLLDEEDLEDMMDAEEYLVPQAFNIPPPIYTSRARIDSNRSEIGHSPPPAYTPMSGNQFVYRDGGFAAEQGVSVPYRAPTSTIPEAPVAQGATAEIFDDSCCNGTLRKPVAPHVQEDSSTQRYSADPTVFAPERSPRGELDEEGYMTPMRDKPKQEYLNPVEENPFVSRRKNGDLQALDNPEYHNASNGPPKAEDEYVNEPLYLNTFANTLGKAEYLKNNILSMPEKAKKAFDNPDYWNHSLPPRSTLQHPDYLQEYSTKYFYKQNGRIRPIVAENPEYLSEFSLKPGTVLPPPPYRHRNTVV

| CYP3A4 inhibitor potency compared with lapatinib [4] | CYP3A4 inhibitor potency after preincubation with the test compound, compared with lapatinib [4] | inhibition of ErbB2 or EGFR, potency compared with lapatinib [6] | SMILES | Ratio IC50:TD*** [5] | further results |
| --- | --- | --- | --- | --- | --- |
| – | – | – | CS(=O)(=O)CCN(O)Cc1ccc(-c2ccc3ncnc(Nc4ccc(OCc5cccc(F)c5)c(Cl)c4)c3c2)o1 [Compound 2] | – | IC50 [1]: > 10 µM; IC50 [2]: 32 nM; IC50 [3]: 72 nM |
| less potent | less potent | – | CS(=O)(=O)CCN(Cc1ccc(-c2ccc3ncnc(Nc4ccc(OCc5cccc(F)c5)c(Cl)c4)c3c2)o1)OC(N)=O [Compound 3] | – | – |
| less potent | less potent | – | CN(C)C(=O)ON(CCS(C)(=O)=O)Cc1ccc(-c2ccc3ncnc(Nc4ccc(OCc5cccc(F)c5)c(Cl)c4)c3c2)o1 [Compound 4] | – | – |
| – | – | better potency than lapatinib | COC(=O)ON(CCS(C)(=O)=O)Cc1ccc(-c2ccc3ncnc(Nc4ccc(OCc5cccc(F)c5)c(Cl)c4)c3c2)o1 [Compound 5] | ++ | – |
| less potent | less potent | better potency than lapatinib | CS(=O)(=O)CCN(CC(=O)O)Cc1ccc(-c2ccc3ncnc(Nc4ccc(OCc5cccc(F)c5)c(Cl)c4)c3c2)o1 [Compound 6] | +++ | ErbB2 inhibition potency compared with lapatinib [7]: better potency than lapatinib; EGFR inhibition potency compared with lapatinib [8]: better potency than lapatinib |
| less potent | less potent | better potency than lapatinib | CS(=O)(=O)CCN(Cc1ccc(-c2ccc3ncnc(Nc4ccc(OCc5cccc(F)c5)c(Cl)c4)c3c2)o1)S(C)(=O)=O [Compound 7] | ++ | BT-474 IC50 compared with lapatinib [9]: lower than those observed for lapatinib; NCI-N87 IC50 compared with lapatinib [10]: lower than those observed for lapatinib |
| – | less potent | better potency than lapatinib | CS(=O)(=O)CCN(Cc1ccc(-c2ccc3ncnc(Nc4ccc(OCc5cccc(F)c5)c(Cl)c4)c3c2)o1)C1COC1 [Compound 9] | +++ | BT-474 IC50 compared with lapatinib [9]: lower than those observed for lapatinib; NCI-N87 IC50 compared with lapatinib [10]: lower than those observed for lapatinib; BT-474 IC50 compared with lapatinib [11]: lower IC50 than lapatinib |
| less potent | less potent | better potency than lapatinib | CS(=O)(=O)CCN(Cc1ccc(-c2ccc3ncnc(Nc4ccc(OCc5cccc(F)c5)c(Cl)c4)c3c2)o1)C1CCC1 [Compound 10] | + | time dependent shift of CYP3A4 inhibition compared with lapatinib [4]: possible exception |

| SMILES | CYP3A4 inhibitor potency compared with lapatinib [4] | CYP3A4 inhibitor potency after preincubation with the test compound, compared with lapatinib [4] | inhibition of ErbB2 or EGFR, potency compared with lapatinib [6] | Ratio IC50:TD*** [5] | further results |
| --- | --- | --- | --- | --- | --- |
| CC(=O)N(CCS(C)(=O)=O)Cc1ccc(-c2ccc3ncnc(Nc4ccc(OCc5cccc(F)c5)c(Cl)c4)c3c2)o1 [Compound 8] | – | less potent | better potency than lapatinib | – | – |
